Test results published in patent US20040077634A1, “Treatment of diseases characterized by excessive or insufficient cell death” (priority 2001, published 2004).
Residues, ends and D or L forms follow the SMILES beside them. *: point of attachment. Cbz = O=C(OCc1ccccc1)*; CH2F = FC*

Experiments:
[1] = system: DEVDase (caspase-3-like protease); experiment: Inhibition of DEVDase in cytochrome c/dATP-activated Hela cytosolic extract (method 1); type: biochemical; conditions: compound final concentration 100 μM; 1 mM dATP and 1 μM cytochrome c; DEVD-AFC
Description: Hela cells are grown in large petri dishes until subconfluency. Cells are then harvested and washed in PBS. The cell pellet is resuspended in equal volumes of ice-cold isotonic lysisbuffer (SCA; 20 mM Hepes-KOH pH 7.5, 10 mM KCl, 1.5 mM MgCl2, 1 mM EDTA, 1 mM EGTA, 250 mM sucrose, 1 mM DTT, 10 μg/ml aprotinin, 1 μg/ml leupeptin, 1 μg/ml pepstatin A, 100 μg/ml peta-block), incubated on ice for 30 min and lysed by approx. 30 strokes of a dounce homogenizer. The lysate is then centrifuged at 750 g for 10 min, and the supernatant thereof at 10,000 g for 10 min and at 20,000 g for 30 min. The clarified supernatant is removed carefully and stored in aliquots at −80° C. Activation of endogene caspases is induced by addition of 1 mM dATP and 1 μM horse heart cytochrome c to cytosolic extract (protein concentration; 5-10 mg/ml) in the presence of DEVD-AFC and the compound (final concentration 100 μM). Activated DEVD'ases (AFC release) is measured by fluorometry in 96-well plates at 37° C. After end measurements 2× LSB-Mechaptoethanol are added to the samples for assessment of caspase processing by immunoblot analysis. Percent inhibition is calculated as follows: [formula]

[2] = system: caspase-9, caspase-3 and caspase-7 processing; DFF45/ICAD and PARP cleavage; experiment: Processing of caspases and caspase substrates in Cc/dATP-stimulated cell extract, Western blotting; type: biochemical; conditions: cell extracts stimulated with Cc/dATP; Western blot; dose dependence
Description: Activation of endogene caspases is induced by addition of 1 mM dATP and 1 μM horse heart cytochrome c to cytosolic extract (protein concentration; 5-10 mg/ml) in the presence of DEVD-AFC and the compound (final concentration 100 μM). Activated DEVD'ases (AFC release) is measured by fluorometry in 96-well plates at 37° C. After end measurements 2× LSB-Mechaptoethanol are added to the samples for assessment of caspase processing by immunoblot analysis.
Next, the effect of the compounds on the processing of caspases and caspase substrates in the in vitro model system was analysed by Western blotting. Caspase-9, caspase-3 and caspase-7 were processed into p35, p17, and p20 active fragments, respectively, in response to Cc/dATP. Accordingly, Cc/dATP induced a threefold induction in DEVDase activity and cleavage of the caspase-3 substrates DFF45/ICAD and PARP.

recombinant caspase-3 = target: T1, recombinant caspase-3 (Homo sapiens, UniProt P42574); experiment: Recombinant caspase-3 activity, cleavage of DEVD-AFC; type: biochemical
T1 sequence (P42574 29-175 limits assumed): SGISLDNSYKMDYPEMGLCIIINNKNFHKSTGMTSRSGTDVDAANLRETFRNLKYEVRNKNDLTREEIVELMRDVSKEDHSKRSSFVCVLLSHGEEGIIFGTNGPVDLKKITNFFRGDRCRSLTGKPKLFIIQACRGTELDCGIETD
T1 sequence (P42574 176-277 limits assumed): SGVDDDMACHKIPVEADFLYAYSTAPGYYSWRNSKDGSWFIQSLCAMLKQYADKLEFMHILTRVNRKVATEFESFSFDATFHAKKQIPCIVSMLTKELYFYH
Description: (§1) To test if compounds a, f, and g were specific caspase inhibitors, recombinant caspase-3 and caspase-9 were incubated with the three compounds and the enzymatic activities of caspases were monitored by analysing the cleavage of the caspase-3 substrate DEVD-AFC or the caspase-9 substrate LEHD-AFC, respectively.

recombinant caspase-9 = target: T2, recombinant caspase-9 (Homo sapiens, UniProt P55211); experiment: Recombinant caspase-9 activity, cleavage of LEHD-AFC; type: biochemical
T2 sequence (P55211 1-315 limits assumed): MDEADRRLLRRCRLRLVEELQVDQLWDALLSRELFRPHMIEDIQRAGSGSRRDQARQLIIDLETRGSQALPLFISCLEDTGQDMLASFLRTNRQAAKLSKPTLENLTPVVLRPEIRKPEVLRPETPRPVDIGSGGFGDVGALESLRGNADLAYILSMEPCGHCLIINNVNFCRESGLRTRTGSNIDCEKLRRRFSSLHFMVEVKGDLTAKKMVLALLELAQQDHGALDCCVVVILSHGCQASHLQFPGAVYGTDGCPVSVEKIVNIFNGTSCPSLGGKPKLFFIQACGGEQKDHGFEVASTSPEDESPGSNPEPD
T2 sequence (P55211 331-416 limits assumed): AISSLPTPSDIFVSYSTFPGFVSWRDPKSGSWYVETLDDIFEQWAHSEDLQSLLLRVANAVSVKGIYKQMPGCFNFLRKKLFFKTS
Description: as §1, with “The inhibition of the DEVDase activity in the in vitro caspase activation system could be due to a direct inhibition of caspase-9, -3, or -7 activities, or to the inhibition of the apoptosome formation. To” for “To”

MCF-neo cells = experiment: TNF-induced cell death of MCF-neo cells; type: cell-based
Description: (§2) The ability of compound f to inhibit cell death was examined in MCF-neo and MCF-casp3 cells. […] To analyse the mechanism of the action of compound f in alive cells, MCF-casp3 cells were treated with TNF (5 ng/ml) in the presence of 50 μM compound f and the activity of caspase-3-like proteases was measured by a DEVDase enzyme assay.

MCF-casp3 cells = experiment: TNF-induced cell death of MCF-casp3 cells
Description: as §2

[3] = target: T3, apoptosome complex (Apaf-1 and caspase-9) (Homo sapiens, UniProt O14727+P55211); experiment: Apoptosome formation: co-immunoprecipitation of Apaf-1 with caspase-9 in cell extract; type: binding; conditions: 1 μM zVAD-fmk, 1 hour with Cc/dATP prior to IP
T3 construct: Caspase-9 antibody precipitated practically all caspase-9 present in the cell extract; endogenous in cells; host or cells: cell extract
T3 sequence (O14727 1-1248): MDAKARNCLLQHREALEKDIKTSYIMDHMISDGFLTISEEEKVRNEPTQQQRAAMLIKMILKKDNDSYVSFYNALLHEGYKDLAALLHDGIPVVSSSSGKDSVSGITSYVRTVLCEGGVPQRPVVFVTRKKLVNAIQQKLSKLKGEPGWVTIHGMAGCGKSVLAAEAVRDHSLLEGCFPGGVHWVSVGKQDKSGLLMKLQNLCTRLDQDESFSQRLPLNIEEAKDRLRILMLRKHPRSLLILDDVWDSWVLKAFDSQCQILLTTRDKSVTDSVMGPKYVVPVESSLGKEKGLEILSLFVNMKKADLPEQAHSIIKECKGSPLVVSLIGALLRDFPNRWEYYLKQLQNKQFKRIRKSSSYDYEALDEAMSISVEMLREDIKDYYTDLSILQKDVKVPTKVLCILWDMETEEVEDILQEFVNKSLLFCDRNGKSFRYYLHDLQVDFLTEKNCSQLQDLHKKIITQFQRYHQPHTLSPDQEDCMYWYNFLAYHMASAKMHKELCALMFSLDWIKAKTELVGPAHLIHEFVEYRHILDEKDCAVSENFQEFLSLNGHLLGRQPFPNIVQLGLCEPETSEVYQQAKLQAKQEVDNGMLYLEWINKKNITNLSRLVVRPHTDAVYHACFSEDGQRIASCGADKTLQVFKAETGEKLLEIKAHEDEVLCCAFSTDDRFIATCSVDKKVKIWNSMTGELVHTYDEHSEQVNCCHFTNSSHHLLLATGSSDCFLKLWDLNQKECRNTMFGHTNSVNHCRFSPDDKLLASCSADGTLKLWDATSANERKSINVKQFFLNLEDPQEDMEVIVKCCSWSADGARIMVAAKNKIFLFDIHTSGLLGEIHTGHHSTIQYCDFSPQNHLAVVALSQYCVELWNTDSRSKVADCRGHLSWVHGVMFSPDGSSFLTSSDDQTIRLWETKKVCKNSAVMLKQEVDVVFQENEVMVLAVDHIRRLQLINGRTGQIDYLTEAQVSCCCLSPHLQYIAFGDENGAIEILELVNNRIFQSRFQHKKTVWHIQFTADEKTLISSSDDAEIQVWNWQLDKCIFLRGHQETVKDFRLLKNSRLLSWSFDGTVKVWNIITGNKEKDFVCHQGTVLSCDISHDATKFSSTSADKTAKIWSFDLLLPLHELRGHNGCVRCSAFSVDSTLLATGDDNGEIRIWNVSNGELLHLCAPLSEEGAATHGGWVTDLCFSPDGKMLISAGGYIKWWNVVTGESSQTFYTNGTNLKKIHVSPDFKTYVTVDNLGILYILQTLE
T3 sequence (P55211 1-416): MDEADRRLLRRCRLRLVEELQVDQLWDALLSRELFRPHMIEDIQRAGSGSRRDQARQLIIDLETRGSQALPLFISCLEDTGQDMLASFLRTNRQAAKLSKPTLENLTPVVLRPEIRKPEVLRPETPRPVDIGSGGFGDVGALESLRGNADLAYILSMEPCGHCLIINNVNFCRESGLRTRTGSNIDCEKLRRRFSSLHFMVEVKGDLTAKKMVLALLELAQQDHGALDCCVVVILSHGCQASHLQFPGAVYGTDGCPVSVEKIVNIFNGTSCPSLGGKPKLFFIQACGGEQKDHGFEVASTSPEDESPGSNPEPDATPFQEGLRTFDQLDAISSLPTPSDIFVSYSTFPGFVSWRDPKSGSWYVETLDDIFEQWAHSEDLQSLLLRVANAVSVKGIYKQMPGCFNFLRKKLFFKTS
Description: Next, it was tested whether compound f interferes with the formation of apoptosome complex in response to Cc/dATP. Cell extracts were incubated with Cc/dATP in the presence or absence of 100 μM compound f or 1 μM zVAD-fmk for 1 hour prior to the immunoprecipitation (IP) of caspase-9. […] Hsp90, which has been proposed to associate with Apaf-1 and prevent oligomerization and caspase-9 recruitment, was not co-immunoprecipitated with caspase-9.

[4] = 25 to 100 μM, DEVD-AFC substrate
[5] = 25 to 100 μM, LEHD-AFC substrate

Structure (SMILES): O=C(Nc1cccc(C(F)(F)F)c1)Nc1ccc(O)cc1O [g, [N-(2,4-Dihydroxyphenyl)-N′-(3-trifluoromethylphenyl)]urea]
- % Inhibition [1]: 74%
- inhibition of caspase-9, -3 and -7 processing and DFF45/ICAD and PARP cleavage [2]: dose-dependent inhibition
- inhibition of recombinant caspase-3 activity (recombinant caspase-3; [4]): failed to inhibit
- inhibition of recombinant caspase-9 activity (recombinant caspase-9; [5]): failed to inhibit

Structure (SMILES): CC(=O)N[C@@H](CC(=O)O)C(=O)N[C@@H](CCC(=O)O)C(=O)N[C@H](C(=O)N[C@H](C=O)CC(=O)O)C(C)C [DEVD-CHO, reference compound]
- cell death induced by TNF (MCF-neo cells; 1 ng/ml TNF, 200 μM DEVD-CHO): blocked
- protection against TNF (MCF-neo cells; 5 ng/ml TNF, 200 μM DEVD-CHO): significant protection
- cell death induced by TNF (MCF-casp3 cells; 1 ng/ml TNF, 200 μM DEVD-CHO): blocked
- protection against TNF (MCF-casp3 cells; 5 ng/ml TNF, 200 μM DEVD-CHO): significant protection
- inhibition of recombinant caspase-9 activity (recombinant caspase-9; 0.1 μM DEVD-CHO): almost total inhibition

Structure (SMILES): c1ccc(-c2cccc(-n3cnc4ccccc43)c2)cc1 [d, 1-(3-Biphenyl)-benzimidazole]
- % Inhibition [1]: 58%

Structure (SMILES): COC(=O)c1cc(NC(=O)Nc2cccc(C(F)(F)F)c2)c(O)cc1[N+](=O)[O-] [a, [N-(2-Hydroxy-5-methoxycarbonyl-4-nitrophenyl)-N′-(3-trifluoromethylphenyl)]urea]
- % Inhibition [1]: 80%
- inhibition of caspase-9, -3 and -7 processing and DFF45/ICAD and PARP cleavage [2]: dose-dependent inhibition
- inhibition of recombinant caspase-3 activity (recombinant caspase-3; [4]): failed to inhibit
- inhibition of recombinant caspase-9 activity (recombinant caspase-9; [5]): failed to inhibit

Structure (SMILES): COC(=O)C[C@H](NC(=O)[C@H](C)NC(=O)[C@@H](NC(=O)OCc1ccccc1)C(C)C)C(=O)CF [zVAD-fmk, reference compound] (Cbz-Val-Ala-Asp(OMe)-CH2F)
- TNF-induced death (MCF-neo cells; 50 μM zVAD-fmk): blocked completely
- inhibition of recombinant caspase-3 activity (recombinant caspase-3; 1 μM zVAD-fmk): almost total inhibition
- co-immunoprecipitation of Apaf-1 with caspase-9 [3]: efficiently co-immunoprecipitated
- TNF-induced death (MCF-casp3 cells; 50 μM zVAD-fmk): blocked completely
- inhibition of recombinant caspase-9 activity (recombinant caspase-9; 1 μM zVAD-fmk): almost total inhibition

Structure (SMILES): O=c1onc2cnc3cc([N+](=O)[O-])ccc3n12 [e, 7-Nitro-1,2,4-oxadiazolo[3,4-d]benz[b]-1,4-diazin-1-one]
- % Inhibition [1]: 63%

Structure (SMILES): CN1[C@H]2CC[C@@H]1[C@@H](c1nc(-c3cccs3)no1)[C@@H](c1ccc3ccccc3c1)C2.Cl [c, (1R,2S,3S)-2-[3-(2-Thienyl)-1,2,4-oxadiazol-5-yl]-3-(2-naphthyl)-tropane hydrochloric acid salt]
- % Inhibition [1]: 60%
- melting point: 149 to 150 °C
